In PubChem BioAssay AID256 (DTP/NCI, 2004):
Where “and” joins values, the source holds several entries; their conditions need not be identical. Equal entries are not always repeated. Inconclusive results and toxic doses are left out.

Test system: CD2F1 mice, L1210 leukemia ip, survival T/C
Assay: NCI In Vivo Anticancer Drug Screen. Data for tumor model L1210 Leukemia (intraperitoneal) in CD2F1 (CDF1) mice
Details: higher = longer survival
Procedure, shortened: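 Implant tumor; dose compound or vehicle; measure endpoint in both groups; report treated divided by control.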

[1] = endpoint: mean survival time, dose: 50.0 mg/kg/injection, schedule: Q04DX003 (ip), vehicle: saline with Tween-80
[2] = endpoint: mean survival time, dose: 100.0 mg/kg/injection, schedule: Q04DX003 (ip), vehicle: saline with Tween-80
[3] = endpoint: mean survival time, dose: 200.0 mg/kg/injection, schedule: Q04DX003 (ip), vehicle: saline with Tween-80
[4] = endpoint: mean survival time, dose: 100.0 mg/kg/injection, schedule: Q04DX003 (ip), vehicle: saline
[5] = endpoint: mean survival time, dose: 100.0 mg/kg/injection, schedule: Q01DX009 (ip), vehicle: saline with Tween-80
[6] = endpoint: mean survival time, dose: 200.0 mg/kg/injection, schedule: Q01DX009 (ip), vehicle: saline with Tween-80
[7] = endpoint: mean survival time, dose: 400.0 mg/kg/injection, schedule: Q01DX009 (ip), vehicle: saline with Tween-80
[8] = endpoint: mean survival time, dose: 100.0 mg/kg/injection, schedule: Q04DX002 (ip), vehicle: saline with Tween-80
[9] = endpoint: mean survival time, dose: 200.0 mg/kg/injection, schedule: Q04DX002 (ip), vehicle: saline with Tween-80
[10] = endpoint: mean survival time, dose: 400.0 mg/kg/injection, schedule: Q04DX002 (ip), vehicle: saline with Tween-80

For CN(C)c1ccc(-c2cc(C(=O)O)c3cc(I)ccc3n2)c(Cl)c1, the T/C (endpoint: mean survival time, dose: 75.0 mg/kg/injection, schedule: Q01DX009 (ip), vehicle: saline) was 100 % of control, the T/C (endpoint: mean survival time, dose: 75.0 mg/kg/injection, schedule: Q04DX003 (ip), vehicle: saline) was 92 % of control and the T/C (endpoint: mean survival time, dose: 150.0 mg/kg/injection, schedule: Q01DX009 (ip), vehicle: saline) was 94 % of control. For the same molecule, the T/C (endpoint: mean survival time, dose: 150.0 mg/kg/injection, schedule: Q04DX003 (ip), vehicle: saline) was 93 % of control, the T/C (endpoint: mean survival time, dose: 300.0 mg/kg/injection, schedule: Q01DX009 (ip), vehicle: saline) was 98 % of control and the T/C (endpoint: mean survival time, dose: 300.0 mg/kg/injection, schedule: Q04DX003 (ip), vehicle: saline) was 110 % of control.

In the case of [Cl][Pt+2][Cl].[NH-]CCc1ccccc1.[NH-]CCc1ccccc1, the T/C (endpoint: mean survival time, dose: 12.5 mg/kg/injection, schedule: Q04DX003 (ip), vehicle: saline with Tween-80) is reported as 103 % of control, the T/C (endpoint: mean survival time, dose: 25.0 mg/kg/injection, schedule: Q04DX003 (ip), vehicle: saline with Tween-80) is reported as 106 % of control and the T/C [1] is reported as 106 % of control. For the same molecule, the T/C [2] was 103 % of control and the T/C [3] was 117 % of control.

With C[n+]1cccc(C(=O)N/N=C/c2ccco2)c1 the T/C [4] was 105 % of control, the T/C (endpoint: mean survival time, dose: 200.0 mg/kg/injection, schedule: Q04DX003 (ip), vehicle: saline) was 98 % of control and the T/C (endpoint: mean survival time, dose: 400.0 mg/kg/injection, schedule: Q04DX003 (ip), vehicle: saline) was 104 % of control.

For CC(C)[NH-].CC(C)[NH-].[Cl][Pt+2][Cl], the T/C (endpoint: mean survival time, dose: 1.56 mg/kg/injection, schedule: Q01DX009 (ip), vehicle: dextrose) was 119 % of control, the T/C (endpoint: mean survival time, dose: 1.56 mg/kg/injection, schedule: Q01DX009 (ip), vehicle: other) was 112 % of control and the T/C (endpoint: mean survival time, dose: 3.12 mg/kg/injection, schedule: Q01DX009 (ip), vehicle: other) was 118 % of control. For the same molecule, the T/C (endpoint: mean survival time, dose: 3.13 mg/kg/injection, schedule: Q04DX003 (ip), vehicle: distilled water + Tween-80) was 112 % of control, the T/C (endpoint: mean survival time, dose: 6.25 mg/kg/injection, schedule: Q01DX009 (ip), vehicle: dextrose) was 100 % of control and the T/C (endpoint: mean survival time, dose: 6.25 mg/kg/injection, schedule: Q04DX003 (ip), vehicle: distilled water + Tween-80) was 115 % of control. The T/C (endpoint: mean survival time, dose: 12.5 mg/kg/injection, schedule: Q01DX009 (ip), vehicle: dextrose) was 98 % of control and 112 % of control, the T/C (endpoint: mean survival time, dose: 50.0 mg/kg/injection, schedule: Q01DX009 (ip), vehicle: other) was 88 % of control and the T/C (endpoint: mean survival time, dose: 50.0 mg/kg/injection, schedule: Q04DX003 (ip), vehicle: distilled water + Tween-80) was 118 % of control.

With CCCCCC[Si] the T/C (endpoint: mean survival time, dose: 75.0 mg/kg/injection, schedule: Q01DX009 (ip), vehicle: saline with Tween-80) was 94 % of control, the T/C (endpoint: mean survival time, dose: 150.0 mg/kg/injection, schedule: Q01DX009 (ip), vehicle: saline with Tween-80) was 94 % of control and the T/C (endpoint: mean survival time, dose: 300.0 mg/kg/injection, schedule: Q01DX009 (ip), vehicle: saline with Tween-80) was 98 % of control.

For CC(C)(C)OC(=O)NC(CCCCNC(=O)C(F)(F)F)C(=O)O (stereo unspecified), the T/C [5] was 102 % of control, the T/C [6] was 93 % of control and the T/C [7] was 87 % of control.

For Clc1nc2nc[nH]c2nc1Cl, the T/C (endpoint: mean survival time, dose: 25.0 mg/kg/injection, schedule: Q01DX009 (ip), vehicle: saline sonified) was 97 % of control, the T/C (endpoint: mean survival time, dose: 50.0 mg/kg/injection, schedule: Q01DX009 (ip), vehicle: saline sonified) was 89 % of control and the T/C (endpoint: mean survival time, dose: 100.0 mg/kg/injection, schedule: Q01DX009 (ip), vehicle: saline sonified) was 98 % of control.

O=C(/C=C(\C(=O)c1ccccc1)c1ccccc1)c1ccccc1 was tested, and the T/C (endpoint: mean survival time, dose: 50.0 mg/kg/injection, schedule: Q01DX009 (ip), vehicle: saline with Tween-80) was 95 % of control, the T/C [1] was 92 % of control and the T/C [5] was 96 % of control. The T/C [2] was 87 % of control, the T/C [6] was 101 % of control and the T/C [3] was 87 % of control.

COc1cc(Cl)ccc1NC(=O)Nc1cccc(Cl)c1 was tested, and the T/C [8] was 88 % of control, the T/C [9] was 95 % of control and the T/C [10] was 95 % of control.

Cc1nc2c(n1C)C(=O)c1ccccc1C2=O was tested, and the T/C [4] was 101 % of control.

For CC(C)C(C)CCC(C)C1CCC2C3CC=C4CC(O)CCC4(C)C3CCC12C (stereo unspecified), the T/C (endpoint: mean survival time, dose: 25.0 mg/kg/injection, schedule: Q01DX001 (ip), vehicle: saline with Tween-80) was 91 % of control, the T/C (endpoint: mean survival time, dose: 50.0 mg/kg/injection, schedule: Q01DX001 (ip), vehicle: saline with Tween-80) was 94 % of control and the T/C (endpoint: mean survival time, dose: 100.0 mg/kg/injection, schedule: Q01DX001 (ip), vehicle: saline with Tween-80) was 97 % of control.

With Nc1nc(N)c2nc(COc3ccc(C(=O)NC(CCC(=O)O)C(=O)O)cc3)ccc2n1 (stereo unspecified) the T/C (endpoint: mean survival time, dose: 15.63 micrograms/kg/injection, schedule: Q01DX005 (ip), vehicle: sodium bicarbonate) was 103 % of control and 106 % of control, the T/C (endpoint: mean survival time, dose: 31.25 micrograms/kg/injection, schedule: Q01DX005 (ip), vehicle: sodium bicarbonate) was 120 % of control and 107 % of control and the T/C (endpoint: mean survival time, dose: 62.5 micrograms/kg/injection, schedule: Q01DX005 (ip), vehicle: sodium bicarbonate) was 113 % of control.

With O=NN(CCOS(=O)(=O)c1ccc([N+](=O)[O-])cc1)C(=O)NC1CCCCC1 the T/C (endpoint: mean survival time, dose: 100.0 mg/kg/injection, schedule: Q01DX001 (ip), vehicle: other) was 106 % of control, the T/C (endpoint: mean survival time, dose: 200.0 mg/kg/injection, schedule: Q01DX001 (ip), vehicle: other) was 153 % of control and the T/C (endpoint: mean survival time, dose: 400.0 mg/kg/injection, schedule: Q01DX001 (ip), vehicle: other) was 472 % of control.

With O=C(OC1C(COP(=O)(Oc2ccccc2)Oc2ccccc2)OC(n2nc(SCc3ccccc3)c(=O)[nH]c2=O)C1OC(=O)c1ccccc1)c1ccccc1 (stereo unspecified) the T/C (endpoint: median survival time, dose: 12.5 mg/kg/injection, schedule: Q01DX005 (ip), vehicle: distilled water + Tween-80) was 96 % of control, the T/C (endpoint: median survival time, dose: 25.0 mg/kg/injection, schedule: Q01DX005 (ip), vehicle: distilled water + Tween-80) was 96 % of control and the T/C (endpoint: median survival time, dose: 50.0 mg/kg/injection, schedule: Q01DX005 (ip), vehicle: distilled water + Tween-80) was 97 % of control. For the same molecule, the T/C (endpoint: median survival time, dose: 100.0 mg/kg/injection, schedule: Q01DX005 (ip), vehicle: distilled water + Tween-80) was 97 % of control and the T/C (endpoint: median survival time, dose: 200.0 mg/kg/injection, schedule: Q01DX005 (ip), vehicle: distilled water + Tween-80) was 96 % of control.

In the case of CC(C)(C)[Si](C)(C)OP(=O)(O[Si](C)(C)C(C)(C)C)N(CCCl)CCCl, the T/C (endpoint: mean survival time, dose: 15.63 mg/kg/injection, schedule: Q01DX001 (ip), vehicle: distilled water + Tween-80) is reported as 97 % of control, the T/C (endpoint: mean survival time, dose: 31.3 mg/kg/injection, schedule: Q01DX001 (ip), vehicle: distilled water + Tween-80) is reported as 103 % of control and the T/C (endpoint: mean survival time, dose: 62.5 mg/kg/injection, schedule: Q01DX001 (ip), vehicle: distilled water + Tween-80) is reported as 106 % of control. For the same molecule, the T/C (endpoint: mean survival time, dose: 125.0 mg/kg/injection, schedule: Q01DX001 (ip), vehicle: distilled water + Tween-80) was 105 % of control, the T/C (endpoint: mean survival time, dose: 250.0 mg/kg/injection, schedule: Q01DX001 (ip), vehicle: distilled water + Tween-80) was 101 % of control and the T/C (endpoint: mean survival time, dose: 500.0 mg/kg/injection, schedule: Q01DX001 (ip), vehicle: distilled water + Tween-80) was 109 % of control.

In the case of CC(C)(C)Sc1cccnc1 (tested in a mixture with another compound), the T/C [5] is reported as 92 % of control and the T/C [6] is reported as 93 % of control.

In the case of CN(C(=O)c1cccnc1)c1ccccc1, the T/C [5] is reported as 98 % of control, the T/C [6] is reported as 101 % of control and the T/C [7] is reported as 103 % of control.

CCN(CC)C(=S)SCCSC(=S)N(CC)CC was tested, and the T/C [8] was 92 % of control, the T/C [9] was 106 % of control and the T/C [10] was 89 % of control.

COC(=O)/C([O-])=C(\C(=O)OC)[n+]1cc(Br)cc2ccccc21 was tested, and the T/C [8] was 101 % of control and the T/C [9] was 104 % of control.

CCOc1ccc(OCC)c(NC(=O)Nc2ccccc2C)c1 was tested, and the T/C (endpoint: mean survival time, dose: 25.0 mg/kg/injection, schedule: Q04DX002 (ip), vehicle: saline with Tween-80) was 88 % of control, the T/C (endpoint: mean survival time, dose: 50.0 mg/kg/injection, schedule: Q04DX002 (ip), vehicle: saline with Tween-80) was 88 % of control and the T/C [8] was 90 % of control. For the same molecule, the T/C [10] was 90 % of control.

For CCSc1ncnc2c1ncn2C1OC(CO)C(O)C1O (stereo unspecified), the T/C (endpoint: mean survival time, dose: 132.0 mg/kg/injection, schedule: Q04DX003 (ip), vehicle: saline with Tween-80) was 122 % of control and the T/C [6] was 171 % of control.

For O=C(CCl)n1nc(Cl)c2ccc([N+](=O)[O-])cc21, the T/C (endpoint: mean survival time, dose: 100.0 mg/kg/injection, schedule: Q01DX001 (ip), vehicle: saline) was 98 % of control and the T/C (endpoint: mean survival time, dose: 200.0 mg/kg/injection, schedule: Q01DX001 (ip), vehicle: saline) was 98 % of control.

COc1ccccc1NC(=O)NCCN(C)c1ccccc1 was tested, and the T/C [8] was 88 % of control and the T/C [9] was 88 % of control.

With NCCNCCNCc1ccccc1 the T/C (endpoint: mean survival time, dose: 100.0 mg/kg/injection, schedule: Q01DX009 (ip), vehicle: saline) was 94 % of control and the T/C (endpoint: mean survival time, dose: 200.0 mg/kg/injection, schedule: Q01DX009 (ip), vehicle: saline) was 107 % of control.

For O.O=[N+]([O-])O.[NH-]C1CCCCC1[NH-].[Pt+2] (stereo unspecified), the T/C (endpoint: mean survival time, dose: 0.32 mg/kg/injection, schedule: Q04DX003 (ip), vehicle: other) was 113 % of control and the T/C (endpoint: mean survival time, dose: 0.63 mg/kg/injection, schedule: Q04DX003 (ip), vehicle: other) was 119 % of control.
